# Assays:
# L1210 [1] = assay: Growth inhibition of mouse L1210 cells after 72 hrs by phosphatase assay; assay type: functional, cell-based; conditions: L1210, 72 h
# [2] = Growth inhibition of human KPL4 cells after 72 hrs by MTS assay; assay type: functional, cell-based; conditions: KPL4, 72 h
# AU565 [3] = assay: Ratio of vinblastine IC50 to compound IC50 for human AU565 cells by MTS assay; assay type: functional
# HCC1143 [4] = assay: Ratio of vinblastine IC50 to compound IC50 for human HCC1143 cells by MTS assay; assay type: functional
# MCF7 = assay: Growth inhibition of human MCF7 cells after 72 hrs by MTS assay; assay type: functional, cell-based; conditions: MCF7, 72 h
# [5] = Growth inhibition of human SW403 cells after 72 hrs by MTS assay; assay type: functional, cell-based; conditions: SW-403, 72 h
# HCT-116/VM46 [6] = assay: Ratio of vinblastine IC50 to compound IC50 for vinblastine-resistant human HCT116/VM46 cells overexpressing P-gp by MTS assay; assay type: functional
# PA-1 [7] = assay: Growth inhibition of human PA1 cells after 72 hrs by MTS assay; assay type: functional, cell-based; conditions: PA-1, 72 h
# [8] = Ratio of vinblastine IC50 to compound IC50 for human LNCaP-FGC cells by MTS assay; assay type: functional
# HCT-116/VM46 [9] = assay: Ratio of vinblastine IC50 to compound IC50 for vinblastine-resistant human HCT116/VM46 cells overexpressing P-gp by phosphatase assay; assay type: functional
# HCT-116 [10] = assay: Ratio of vinblastine IC50 to compound IC50 for vinblastine-sensitive human HCT116 cells by MTS assay; assay type: functional
# NCI-H520 [11] = assay: Ratio of vinblastine IC50 to compound IC50 for human NCI-H520 cells by MTS assay; assay type: functional
# NCI-H520 [12] = assay: Growth inhibition of human NCI-H520 cells after 72 hrs by MTS assay; assay type: functional, cell-based; conditions: NCI-H520, 72 h
# ZR-75-1 [13] = assay: Growth inhibition of human ZR-75-1 cells after 72 hrs by MTS assay; assay type: functional, cell-based; conditions: ZR-75-1, 72 h
# [14] = Ratio of vinblastine IC50 to compound IC50 for human KPL4 cells by MTS assay; assay type: functional
# HCT-116/VM46 [15] = assay: Growth inhibition of vinblastine-resistant human HCT116/VM46 cells overexpressing P-gp after 72 hrs by MTS assay; assay type: functional, cell-based; conditions: HCT-116/VM46, 72 h
# HCT-116 [16] = assay: Growth inhibition of vinblastine-sensitive human HCT116 cells after 72 hrs by MTS assay; assay type: functional, cell-based; conditions: HCT-116, 72 h
# HCC70 [17] = assay: Ratio of vinblastine IC50 to compound IC50 for human HCC70 cells by MTS assay; assay type: functional
# HCT-116/VM46 [18] = assay: Growth inhibition of vinblastine-resistant human HCT116/VM46 cells overexpressing P-gp after 72 hrs by phosphatase assay; assay type: functional, cell-based; conditions: HCT-116/VM46, 72 h
# [19] = Growth inhibition of human LNCaP-FGC cells after 72 hrs by MTS assay; assay type: functional, cell-based; conditions: LNCaP-Clone-FGC
# MDA-MB-468 [20] = assay: Growth inhibition of human MDA-MB-468 cells after 72 hrs by MTS assay; assay type: functional, cell-based; conditions: MDA-MB-468, 72 h
# L1210 [21] = assay: Ratio of vinblastine IC50 to compound IC50 for mouse L1210 cells by phosphatase assay; assay type: functional
# PA-1 [22] = assay: Ratio of vinblastine IC50 to compound IC50 for human PA1 cells by MTS assay; assay type: functional
# HCC1143 [23] = assay: Growth inhibition of human HCC1143 cells after 72 hrs by MTS assay; assay type: functional, cell-based; conditions: HCC1143, 72 h
# [24] = Growth inhibition of human LS 174T cells after 72 hrs by MTS assay; assay type: functional, cell-based; conditions: LS174T
# [25] = Ratio of vinblastine IC50 to compound IC50 for human SW403 cells by MTS assay; assay type: functional
# HCT-116 [26] = assay: Growth inhibition of vinblastine-sensitive human HCT116 cells after 72 hrs by phosphatase assay; assay type: functional, cell-based; conditions: HCT-116, 72 h
# MDA-MB-468 [27] = assay: Ratio of vinblastine IC50 to compound IC50 for human MDA-MB-468 cells by MTS assay; assay type: functional
# T47D [28] = assay: Ratio of vinblastine IC50 to compound IC50 for human T47D cells by MTS assay; assay type: functional
# HCT-116 [29] = assay: Ratio of IC50 for vinblastine-resistant human HCT116/VM46 cells overexpressing P-gp to IC50 for vinblastine-sensitive human HCT116 cells by phosphatase assay; assay type: functional
# AU565 [30] = assay: Growth inhibition of human AU565 cells after 72 hrs by MTS assay; assay type: functional, cell-based; conditions: AU565, 72 h
# ZR-75-1 [31] = assay: Ratio of vinblastine IC50 to compound IC50 for human ZR-75-1 cells by MTS assay; assay type: functional
# HCT-116 [32] = assay: Ratio of vinblastine IC50 to compound IC50 for vinblastine-sensitive human HCT116 cells by phosphatase assay; assay type: functional
# LS174T = assay: Ratio of vinblastine IC50 to compound IC50 for human LS 174T cells by MTS assay; assay type: functional
# T47D [33] = assay: Growth inhibition of human T47D cells after 72 hrs by MTS assay; assay type: functional, cell-based
# HCC70 [34] = assay: Growth inhibition of human HCC70 cells after 72 hrs by MTS assay; assay type: functional, cell-based; conditions: HCC70, 72 h
# Tubulin (Sus scrofa) = Tubulin (Sus scrofa) (UniProt P02554+P02550); assay: Displacement of [3H]-VBL from porcine tubulin after 60 mins relative to control; assay type: protein assay
# Tubulin (Sus scrofa), sequence (P02550 whole entry, looked up): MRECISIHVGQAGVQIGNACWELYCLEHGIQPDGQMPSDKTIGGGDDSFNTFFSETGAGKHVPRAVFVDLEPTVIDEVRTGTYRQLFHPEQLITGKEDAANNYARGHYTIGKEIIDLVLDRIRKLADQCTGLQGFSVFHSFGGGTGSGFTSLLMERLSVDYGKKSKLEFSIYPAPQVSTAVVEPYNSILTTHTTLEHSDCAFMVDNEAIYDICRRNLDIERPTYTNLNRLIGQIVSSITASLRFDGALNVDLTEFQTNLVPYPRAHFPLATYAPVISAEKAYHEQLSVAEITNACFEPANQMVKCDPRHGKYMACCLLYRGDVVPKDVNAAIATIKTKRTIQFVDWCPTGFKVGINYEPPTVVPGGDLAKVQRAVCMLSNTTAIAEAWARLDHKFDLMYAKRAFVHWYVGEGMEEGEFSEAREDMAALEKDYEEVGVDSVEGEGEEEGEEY
# Tubulin (Sus scrofa), sequence (P02554 whole entry, looked up): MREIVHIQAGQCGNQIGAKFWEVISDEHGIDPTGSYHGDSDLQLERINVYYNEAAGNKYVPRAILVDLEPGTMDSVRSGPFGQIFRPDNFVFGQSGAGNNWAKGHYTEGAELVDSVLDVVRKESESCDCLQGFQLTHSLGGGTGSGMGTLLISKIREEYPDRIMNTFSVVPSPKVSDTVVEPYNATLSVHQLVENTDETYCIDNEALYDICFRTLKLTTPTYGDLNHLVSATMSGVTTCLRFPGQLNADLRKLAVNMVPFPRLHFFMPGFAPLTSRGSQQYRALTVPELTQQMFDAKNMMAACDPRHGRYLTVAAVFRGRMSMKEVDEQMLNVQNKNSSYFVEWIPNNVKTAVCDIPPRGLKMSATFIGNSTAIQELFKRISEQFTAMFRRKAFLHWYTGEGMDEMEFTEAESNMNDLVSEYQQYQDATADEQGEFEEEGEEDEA
compound,measurement,setting,value
CC[C@]1(NC(N)=O)C[C@H]2CN(CCc3c([nH]c4ccccc34)[C@@](C(=O)OC)(c3cc4c(cc3OC)N(C)[C@H]3[C@@](O)(C(=O)OC)[C@H](OC(C)=O)[C@]5(CC)C=CCN6CC[C@]43[C@@H]65)C2)C1,IC50,L1210 [1],40 nM
CC[C@]1(NC(=O)N2CC=CCC2)C[C@H]2CN(CCc3c([nH]c4ccccc34)[C@@](C(=O)OC)(c3cc4c(cc3OC)N(C)[C@H]3[C@@](O)(C(=O)OC)[C@H](OC(C)=O)[C@]5(CC)C=CCN6CC[C@]43[C@@H]65)C2)C1,IC50,[2],0.06 nM
same,Ratio IC50,AU565 [3],10
same,Ratio IC50,HCC1143 [4],10
same,IC50,MCF7,> 12.5 nM
same,IC50,L1210 [1],0.52 nM
same,IC50,[5],0.5 nM
same,Ratio IC50,HCT-116/VM46 [6],10
same,IC50,PA-1 [7],0.11 nM
same,Ratio IC50,[8],10
same,Ratio IC50,HCT-116/VM46 [9],80
same,Ratio IC50,HCT-116 [10],10
same,Ratio IC50,NCI-H520 [11],10
same,IC50,NCI-H520 [12],0.17 nM
same,IC50,ZR-75-1 [13],0.71 nM
same,Ratio IC50,[14],10
same,IC50,HCT-116/VM46 [15],6.4 nM
same,IC50,HCT-116 [16],0.22 nM
same,Ratio IC50,HCC70 [17],10
same,IC50,HCT-116/VM46 [18],8.4 nM
same,IC50,[19],0.45 nM
same,IC50,MDA-MB-468 [20],0.4 nM
same,Ratio IC50,L1210 [21],10
same,Ratio IC50,PA-1 [22],10
same,IC50,HCC1143 [23],0.13 nM
same,IC50,[24],0.46 nM
same,Ratio IC50,[25],10
same,IC50,HCT-116 [26],0.52 nM
same,Ratio IC50,MDA-MB-468 [27],10
same,Ratio IC50,T47D [28],10
same,Ratio IC50,HCT-116 [29],13
same,IC50,AU565 [30],0.15 nM
same,Ratio IC50,ZR-75-1 [31],10
same,Ratio IC50,HCT-116 [32],10
same,Ratio IC50,LS174T,10
same,IC50,T47D [33],0.51 nM
same,IC50,HCC70 [34],0.21 nM
CC[C@]1(NC(=O)N2CCOCC2)C[C@H]2CN(CCc3c([nH]c4ccccc34)[C@@](C(=O)OC)(c3cc4c(cc3OC)N(C)[C@H]3[C@@](O)(C(=O)OC)[C@H](OC(C)=O)[C@]5(CC)C=CCN6CC[C@]43[C@@H]65)C2)C1,IC50,L1210 [1],5.3 nM
CC[C@]1(NC(=O)N2CCC(c3ccccc3)CC2)C[C@H]2CN(CCc3c([nH]c4ccccc34)[C@@](C(=O)OC)(c3cc4c(cc3OC)N(C)[C@H]3[C@@](O)(C(=O)OC)[C@H](OC(C)=O)[C@]5(CC)C=CCN6CC[C@]43[C@@H]65)C2)C1,IC50,L1210 [1],5.3 nM
same,IC50,HCT-116/VM46 [18],55 nM
same,IC50,HCT-116 [26],3.1 nM
CC[C@]1(NC(=O)N2Cc3ccc(OC)cc3C2)C[C@H]2CN(CCc3c([nH]c4ccccc34)[C@@](C(=O)OC)(c3cc4c(cc3OC)N(C)[C@H]3[C@@](O)(C(=O)OC)[C@H](OC(C)=O)[C@]5(CC)C=CCN6CC[C@]43[C@@H]65)C2)C1,IC50,L1210 [1],0.61 nM
same,Ratio IC50,HCT-116/VM46 [9],80
same,IC50,HCT-116/VM46 [18],8.7 nM
same,Ratio IC50,L1210 [21],10
same,IC50,HCT-116 [26],0.69 nM
same,Ratio IC50,HCT-116 [29],13
same,Ratio IC50,HCT-116 [32],10
CC[C@]1(O)C[C@@H]2CN(CCc3c([nH]c4ccccc34)[C@@](C(=O)OC)(c3cc4c(cc3OC)N(C)[C@H]3[C@@](O)(C(=O)OC)[C@H](OC(C)=O)[C@]5(CC)C=CCN6CC[C@]43[C@@H]65)C2)C1 [VINBLASTINE],IC50,[2],2.9 nM
same,IC50,MCF7,> 110 nM
same,IC50,[5],7.9 nM
same,IC50,PA-1 [7],4.6 nM
same,IC50,NCI-H520 [12],4.5 nM
same,IC50,ZR-75-1 [13],8 nM
same,IC50,HCT-116/VM46 [15],> 110 nM
same,IC50,[19],5.1 nM
same,IC50,MDA-MB-468 [20],4.6 nM
same,Activity,Tubulin (Sus scrofa),50%
same,IC50,HCC1143 [23],3.8 nM
same,IC50,[24],19.6 nM
same,IC50,AU565 [30],4 nM
same,IC50,T47D [33],5 nM
same,IC50,HCC70 [34],3.5 nM
CC[C@]1(NC(=O)NC)C[C@H]2CN(CCc3c([nH]c4ccccc34)[C@@](C(=O)OC)(c3cc4c(cc3OC)N(C)[C@H]3[C@@](O)(C(=O)OC)[C@H](OC(C)=O)[C@]5(CC)C=CCN6CC[C@]43[C@@H]65)C2)C1,IC50,L1210 [1],5.9 nM

# — ChEMBL document CHEMBL2440050 (ACS Med Chem Lett, 2013)
